In patent US8828469B2, “Use of alkamides for masking an unpleasant flavor” (Symrise AG, priority 2007, dated 2014):

Assay: Tests carried out by the Applicant on masking or reducing unpleasant flavor impressions
Conditions: for effect for masking or reducing the unpleasant flavor impression of an unpleasant-tasting substance: among the alkamides tested by the Applicant

In the case of `CCCCC/C=C/C=C/C(=O)NCC(C)C` [Formula (1), 2E,4E-decadienoic acid-N-isobutylamide], the “effect for masking or reducing the unpleasant flavor impression of an unpleasant-tasting substance” value is reported as “best effect” and the “effect to change, mask or reduce the unpleasant flavor impression” value (very low concentrations which are not sufficient to intensify salivation) is reported as “very strong effect”.
In the case of `CCCCC/C=C\C=C/C(=O)NCC(C)C` [Formula (3), 2Z,4Z-decadienoic acid-N-isobutylamide], the “effect for masking or reducing the unpleasant flavor impression of an unpleasant-tasting substance” value is reported as “best effect”.
For `CCCCC/C=C\C=C\C(=O)NCC(C)C` [Formula (2), 2E,4Z-decadienoic acid-N-isobutylamide], the “effect for masking or reducing the unpleasant flavor impression of an unpleasant-tasting substance” value was “best effect”.
With `CCCCC/C=C/C=C\C(=O)NCC(C)C` [Formula (4), 2Z,4E-decadienoic acid-N-isobutylamide] the “effect for masking or reducing the unpleasant flavor impression of an unpleasant-tasting substance” value was “best effect”.
